Measurements as given in patent US8466201B2, “Potassium ion channel modulators and uses thereof” (Ramot at Tel-Aviv University ltd., priority 2007, dated 2013).

Molecular target: KCNQ2/KCNQ3 potassium channel current expressed in mammalian cells (Homo sapiens, UniProt O43525+O43526)
Experiment: KCNQ2/KCNQ3 current enhancement, automated parallel patch-clamp (PatchXpress 7000A)
Format: cell-based
Settings: mean±s.e.m
Procedure: The objective of this study was to examine the in vitro effects of the Example compounds on the KCNQ2/KCNQ3 potassium channel current expressed in mammalian cells using the PatchXpress 7000A (Molecular Devices), an automatic parallel patch-clamp system. The test compounds were evaluated at 30 or 10 μM (n≦2). The duration of exposure to the test compound was 5 minutes. […] The results for a positive control, flupirtine (Table 2) applied to naïve cells in the same study confirm the sensitivity of the test system to detect KCNQ2/KCNQ3 current enhancement.
All experiments were performed at ambient temperature. Each cell acted as its own control.
A 30 μM or 10 μM concentration of test compound was applied via disposable polyethylene micropipette tips to naïve cells. Each solution exchange, performed in quadruplicate, consisted of aspiration and replacement of 45 μL of the total 50 μL volume of the extracellular well of the Sea/chip16.
Vehicle was applied to naïve cells (n≦2), for a 5 minute exposure interval.
Each solution exchange, performed in quadruplicate, consisted of aspiration and replacement of 45 μL of the total 50 μL volume of the extracellular well of the Sea/chip16. After vehicle application, the positive control was applied in the same manner, to verify sensitivity of the assay.
In preparation for a recording session, intracellular solution was loaded into the intracellular compartments of the Sea/chip16 planar electrode. Cell suspension was pipetted into the extracellular compartments of the Sea/chip16 planar electrode. After establishment of the whole-cell configuration, membrane currents were recorded using dual-channel patch-clamp amplifiers in the PatchXpress® system. Before digitization, the current records were low-pass filtered at one-fifth of the sampling frequency.
Data acquisition and analysis were performed using the pCLAMP suite of programs (Axon Instruments, Union City, Calif.). The steady-state current before and after test article application was used to calculate the percentage current enhancement at each concentration. The results obtained from different cells were averaged and presented as mean±s.e.m (see Tables 1 and 2).

[1] = 30 μM test compound, 5 minutes exposure, ambient temperature

Row | Mean % Enhancement of KCNQ2/KCNQ3 [1] [%] | Compound | other results
1 | 41.2 ± 9 | O=S(=O)(NCCO)c1ccccc1Nc1c(Cl)cc(Cl)cc1Cl [Example 8, N-(2-Hydroxyethyl)-2-(2,4,6-trichlorophenylamino)-benzenesulfonamide] | 
2 | 32.4 ± 18 | O=S(=O)(Cc1ccccc1Nc1c(Cl)cccc1Cl)NCCOCCO [Example 1, 1-[2-(2,6-Dichlorophenylamino)phenyl]-N-[2-(2-hydroxyethoxy)ethyl]-methanesulfonamide] | 
3 |  | CCOC(=O)Nc1ccc(NCc2ccc(F)cc2)nc1N [Flupirtine, flupirtine, reference compound] | Mean % Enhancement of KCNQ2/KCNQ3 (positive control, 10 μM, applied after vehicle to naïve cells): 127 ± 16%
4 |  | O=S(=O)(NCCO)c1cc(Nc2c(Cl)cc(Cl)cc2Cl)ccc1Cl [Example 18, 2-Chloro-N-(2-hydroxyethyl)-5-(2,4,6-trichlorophenylamino)benzensulfonamide] | Mean % Enhancement of KCNQ2/KCNQ3 (10 μM test compound, 5 minutes exposure, ambient temperature): 18.6 ± 4%
5 | 56.8 ± 9 | O=S(=O)(NCCO)c1ccccc1Nc1c(Cl)cccc1Cl [Example 9, N-(2-Hydroxyethyl)-2-(2,6-dichlorophenylamino)-benzenesulfonamide] | 
6 | 87.4 ± 14 | O=S(=O)(NCCO)c1cccc(Nc2c(Cl)cc(Cl)cc2Cl)c1 [Example 16, N-(2-Hydroxyethyl)-3-(2,4,6-trichlorophenylamino)-benzenesulfonamide] | 
